In US6096930A, “Herbicidal cyclohexane-1,3-dione derivatives and their preparation process” (Korea Research Institute of Chemical Technology, priority 1994, dated 2000):
Read-outs that look alike come from different tables or passages of the source.

What was measured:
Assay in all cases: Herbicidal activity for paddy test
Type in all cases: in vivo
[1] = system: SAGPY; conditions: for pest or weed control at 2 g/ha: 0.002 kg/ha; for pest or weed control at 8 g/ha: 0.008 kg/ha; for pest or weed control at 31 g/ha: 0.031 kg/ha; for pest or weed control at 125 g/ha: 0.125 kg/ha; for pest or weed control at 500 g/ha: 0.500 kg/ha
Text: (§1) The sterilized sandy loam soil is filled in test pot having a surface area of 348 cm^2 for upland test conditions or 115 cm^2 for paddy test species were planted in furrows.
(§2) The herbicidal activity data were taken visually by percent control, wherein 0 signifies no herbicidal effect and 100 signifies complete kill.

[2] = system: ECHOR; conditions: for pest or weed control at 2 g/ha: 0.002 kg/ha; for pest or weed control at 8 g/ha: 0.008 kg/ha; for pest or weed control at 31 g/ha: 0.031 kg/ha; for pest or weed control at 125 g/ha: 0.125 kg/ha; for pest or weed control at 500 g/ha: 0.500 kg/ha
Text: as §1, §2

[3] = system: ORYSA; conditions: for plant injury at 2 g/ha: 0.002 kg/ha; for plant injury at 8 g/ha: 0.008 kg/ha; for plant injury at 31 g/ha: 0.031 kg/ha; for plant injury at 125 g/ha: 0.125 kg/ha; for plant injury at 500 g/ha: 0.500 kg/ha
Text: as §1, §2

[4] = system: SCPJU; conditions: for pest or weed control at 2 g/ha: 0.002 kg/ha; for pest or weed control at 8 g/ha: 0.008 kg/ha; for pest or weed control at 31 g/ha: 0.031 kg/ha; for pest or weed control at 125 g/ha: 0.125 kg/ha; for pest or weed control at 500 g/ha: 0.500 kg/ha
Text: as §1, §2

[5] = system: MOOVA; conditions: for pest or weed control at 2 g/ha: 0.002 kg/ha; for pest or weed control at 8 g/ha: 0.008 kg/ha; for pest or weed control at 31 g/ha: 0.031 kg/ha; for pest or weed control at 125 g/ha: 0.125 kg/ha; for pest or weed control at 500 g/ha: 0.500 kg/ha
Text: as §1, §2

[6] = 3 Leaf, read-out: Herbicidal activity, ORYSA (3 Leaf)
[7] = seed, read-out: Herbicidal activity, ORYSA (seed)

Compound | pest or weed control at 2 g/ha [1] | pest or weed control at 8 g/ha [1] | pest or weed control at 31 g/ha [1] | pest or weed control at 125 g/ha [1] | pest or weed control at 500 g/ha [1] | pest or weed control at 2 g/ha [2] | pest or weed control at 8 g/ha [2] | pest or weed control at 31 g/ha [2] | pest or weed control at 125 g/ha [2] | pest or weed control at 500 g/ha [2] | plant injury at 2 g/ha [3, 6] | plant injury at 8 g/ha [3, 6] | plant injury at 31 g/ha [3, 6] | plant injury at 125 g/ha [3, 6] | plant injury at 500 g/ha [3, 6] | plant injury at 2 g/ha [3, 7] | plant injury at 8 g/ha [3, 7] | plant injury at 31 g/ha [3, 7] | plant injury at 125 g/ha [3, 7] | plant injury at 500 g/ha [3, 7] | also measured
CCCC(=NOC)C1=C(O)CC(c2c(C)c3c(c(C)c2Cl)CC(C)(C)C3)CC1=O (stereo not drawn) [Compound 25] | 0% | 0% | 0% | 0% | 0% | 0% | 0% | 100% | 100% | 100% | 0% | 0% | 0% | 0% | 50% | 0% | 0% | 60% | 100% | 100% | pest or weed control at 2 g/ha [4]: 0%; pest or weed control at 8 g/ha [4]: 0%; pest or weed control at 31 g/ha [4]: 0%; pest or weed control at 125 g/ha [4]: 0%; pest or weed control at 500 g/ha [4]: 0%; pest or weed control at 2 g/ha [5]: 0%; pest or weed control at 8 g/ha [5]: 0%; pest or weed control at 31 g/ha [5]: 0%; pest or weed control at 125 g/ha [5]: 0%; pest or weed control at 500 g/ha [5]: 0%
CCCC(=NOCC)C1=C(O)CC(c2c(C)c3c(c(C)c2Cl)CC(C)(C)C3)CC1=O (stereo not drawn) [Compound 26, 5-(6-Chloro-2,2,4,7-tetramethylindan-5-yl)-2-[1-(ethoxyimino)butyl]-3-hydroxycyclohex-2-en-1-one] | 0% | 0% | 0% | 0% | 0% | 0% | 0% | 100% | 100% | 100% | 0% | 0% | 0% | 0% | 30% | 0% | 0% | 20% | 100% | 100% | pest or weed control at 2 g/ha [4]: 0%; pest or weed control at 8 g/ha [4]: 0%; pest or weed control at 31 g/ha [4]: 0%; pest or weed control at 125 g/ha [4]: 0%; pest or weed control at 500 g/ha [4]: 40%; pest or weed control at 2 g/ha [5]: 0%; pest or weed control at 8 g/ha [5]: 0%; pest or weed control at 31 g/ha [5]: 0%; pest or weed control at 125 g/ha [5]: 0%; pest or weed control at 500 g/ha [5]: 0%
C=CCON=C(CCC)C1=C(O)CC(c2c(C)c3c(c(C)c2Cl)CC(C)(C)C3)CC1=O (stereo not drawn) [Compound 27] | 0% | 0% | 0% | 0% | 0% | 0% | 0% | 50% | 100% | 100% | 0% | 0% | 0% | 0% | 0% | 0% | 0% | 0% | 100% | 100% | pest or weed control at 2 g/ha [4]: 0%; pest or weed control at 8 g/ha [4]: 0%; pest or weed control at 31 g/ha [4]: 0%; pest or weed control at 125 g/ha [4]: 0%; pest or weed control at 500 g/ha [4]: 0%; pest or weed control at 2 g/ha [5]: 0%; pest or weed control at 8 g/ha [5]: 0%; pest or weed control at 31 g/ha [5]: 0%; pest or weed control at 125 g/ha [5]: 0%; pest or weed control at 500 g/ha [5]: 0%
CCC(=NOC)C1=C(O)CC(c2c(C)c(C)c3c(c2Cl)CC(C)(C)C3)CC1=O (stereo not drawn) [Compound 38] | 0% | 0% | 0% | 0% | 0% | 0% | 95% | 100% | 100% | 100% | 0% | 0% | 0% | 50% | 100% | 0% | 20% | 100% | 100% | 100% | pest or weed control at 2 g/ha [4]: 0%; pest or weed control at 8 g/ha [4]: 0%; pest or weed control at 31 g/ha [4]: 0%; pest or weed control at 125 g/ha [4]: 0%; pest or weed control at 500 g/ha [4]: 0%; pest or weed control at 2 g/ha [5]: 0%; pest or weed control at 8 g/ha [5]: 0%; pest or weed control at 31 g/ha [5]: 0%; pest or weed control at 125 g/ha [5]: 0%; pest or weed control at 500 g/ha [5]: 0%
